Measurements as given in publication PMC10499915 (Scientific Reports, 2023).
≈ marks a conversion by molar mass, not a printed value. Entries after “also recorded” stand apart in the source; their conditions may differ. Like-named read-outs stand apart in the source and are kept apart here. Square brackets hold non-standard residues; d marks the D form. Peptide text beside a SMILES is read from it. * marks the point of attachment. Lauroyl = CCCCCCCCCCCC(=O)*; Octanoyl = CCCCCCCC(=O)*; Aun = NCCCCCCCCCCC(=O)O

What was measured:
[1] = system: chymotrypsin; assay: chymotrypsin (Sigma–Aldrich), 1.25 µg of enzyme in 150 µl buffer; Tris·HCl 50 mM, pH 7.8; settings: 37 °C, up to 24 h
[2] = Hydrophobicity by RP-HPLC retention time; assay type: physicochemical; settings: for Retention time tR: used as measure of hydrophobicity, RP-HPLC, Phenomenex Luna C18 (100 Å, 5µ), linear gradient 5%B to 95%B over 30 min, A 0.1% TFA in 9:1 water:acetonitrile, B 0.1% TFA in 9:1 acetonitrile:water, 1 mL/min, peptide 0.5 mg/mL in MeOH, UV 215 and 280 nm; for Hydrophobicity ΔtR: ΔtR = tR(x)−tR(a), relative to compound a, RP-HPLC C18, 5%–95%B over 30 min
Experimental: Peptide hydrophobicity was calculated as difference in retention times between peptide analogues b–h and peptide a. Each peptide was dissolved in MeOH to a concentration of 0.5 mg/mL and then subjected to RP-HPLC on an analytical Phenomenex Luna C18 (100 Å, 5µ) column using 0.1% TFA in 9:1 water:acetonitrile as solvent A, and 0.1% TFA in 9:1 acetonitrile:water as solvent B. The peptides were eluted using a linear gradient as follows: 5%B to 95%B over 30 min. The flow rate was 1 mL/min and the absorbance was measured at 215 nm and 280 nm. The retention time was recorded for each peptide.

[3] = system: P.aeruginosa ATCC 27853; assay type: cell-based, Pseudomonas aeruginosa; settings: ATCC 27853, 18 h
Experimental: (§1) The bacterial strains used were Escherichia coli ATCC 25922, Staphylococcus aureus ATCC 25923, Klebsiella pneumoniae ATCC 700603, Acinetobacter baumannii ATCC 19606, Pseudomonas aeruginosa ATCC 27853 and Staphylococcus epidermidis ATCC 12228. The reference bacterial strains used were purchased from American Type Culture Collection (ATCC) (Manassas, Virginia, USA). They were grown overnight (o/n) at 37 °C in complete Müller-Hinton broth (MHB, Difco) medium with shaking (130 rpm). The day after, the overnight bacterial cultures were diluted in fresh MHB (300 μL o/n culture in 10 mL) and incubated at 37 °C with shaking (130 rpm) for approximately 2 h (mid-log phase) until reaching an optical density (OD) at 600 nm (OD600) ≈ 0.3.
(§2) Peptides diluted in MHB to a concentration of 128 μM were added to the first column of wells of a 96-well round-bottom microtiter plate (Sarstedt, Milan, Italy) and serially diluted (1:2) in a final volume of 50 μL MHB was added to the next wells. Then, a mid-log bacterial cultures (OD 600≈ 0.3) were diluted to 5 × 10^5 colony-forming units (CFU)/mL in MHB and 50 μL of this bacterial suspension was added to each well. In this way, the final bacterial concentration was reduced to 2.5 × 10^5 CFU/mL and the peptide concentration in the wells was also halved in a final volume of 100 μL (final bacteria load was 2.5 × 10^4 CFU/well). The same amount of untreated bacteria in MHB was used as a control for bacterial growth. […] MIC was determined by visual inspection at the end of incubation as the first clear well. Data are reported as moda of independent experiments repeated three times or four times in case of uncertain values.

[4] = 4h and 24 h incubation, different concentrations
[5] = system: K.pneumoniae ATCC 700603; assay type: cell-based, Klebsiella pneumoniae; settings: ATCC 700603, 18 h
Experimental: as §1, §2

[6] = system: HaCaT cell line; settings: 24 h
Experimental: Cytotoxicity was measured by the MTT assay on human immortalized epidermal keratinocyte HaCaT cell line (DKFZ, Eppelheim, Germany). The HaCaT cells were grown in high-glucose Dulbecco’s modified Eagle’s medium (DMEM) (Sigma-Aldrich, Milan, Italy). DMEM medium was supplemented with 10% foetal bovine serum (FBS; Sigma, Milan, Italy), 2 mM glutamine (Sigma, Milan, Italy), 100 U/mL penicillin (Sigma, Milan, Italy) and 100 µg/mL streptomycin (Sigma, Milan, Italy). The cells were maintained at 37 °C in the presence of 5% CO2 and in a humidified incubator.
Cells were counted in a Burker-Türk chamber to prepare a suspension of 2 × 10^5 cells/ml in DMEM High Glucose Complete Medium (Sigma-Aldrich, Milan, Italy). 100 μL of this suspension was added to the wells of a 96-well flat-bottom transparent microtiter plate (Euroclone, Milan, Italy) specially treated for tissue culture. The plate was incubated for 24 h at 37 °C and 5% CO2 to allow the cells in each well to reach a semiconfluent state. The following day, serial dilutions (1:2) of the peptides, starting with 64 μM, were prepared in DMEM medium, and 100 μL of these solutions were used to replace the medium in the plate with HaCaT cells. The same amount of untreated DMEM high-glucose medium was used as a cell growth control. DMEM high-glucose complete medium (100 μL) was used as a negative control to check the sterility of the medium. The plate was sealed with Parafilm to minimize evaporation and incubated at 37 °C and 5% CO2 for 20 h. Then, 25 μL MTT (Sigma-Aldrich, Milan, Italy) dissolved in phosphate-buffered saline (PBS) was added to each well to a final concentration of 1 mg/mL MTT, and the plate was incubated for 4 h in the dark at 37 °C and 5% CO2.
At the end of incubation, 100 μL 10% (w/v) Igepal (Sigma-Aldrich, Milan, Italy) in 10 mM HCl was added to each well, and the plate was incubated overnight in the dark at 37 °C and 5% CO2. The absorbance of MTT at 570 nm was measured using a Nanoquant Infinite-M200Pro plate reader (Tecan, Männedorf, Switzerland). Student’s t-test was performed for all samples.

[7] = system: S.aureus ATCC 25923; assay type: cell-based, Staphylococcus aureus
Experimental: as §1, §2

[8] = system: E.coli ATCC 25922; assay type: cell-based, Escherichia coli; settings: ATCC 25922, 18 h
Experimental: as §1, §2

[9] = system: A.baumanni ATCC 19606; assay type: cell-based, Acinetobacter baumannii; settings: ATCC 19606, 18 h
Experimental: as §1, §2

[10] = system: ram red blood cells (RBCs); settings: 4% v/v ram RBCs in PBS, 1 h, 37 °C, absorbance 540 nm, 100% = 1% Triton X-100; all concentrations tested; n = 3
Experimental: The lytic potential towards eukaryotic cell membranes was assessed by measuring the release of haemoglobin from commercial ram red blood cells (RBCs) (Microbiol s.r.l., Cagliari, Italy) after exposure to the peptides. First, erythrocytes were isolated by centrifugation, washed with PBS and then suspended at 8% (v/v) in PBS. Secondly, 100 µL erythrocytes suspension was added into each well of a 96-well microplate. Then, 100 µL peptide solution was added to each well at different concentrations (the final concentration of erythrocytes suspension was 4% v/v), and the plates were incubated for 1 h at 37 °C and centrifuged at 1000 g for 10 min. Finally, 100 µL aliquots of supernatant were transferred to fresh 96-well microplate, and the release of haemoglobin was monitored by measuring the absorbance at 540 nm with Tecan microplate reader (Tecan Trading AG, Switzerland). 0% and 100% haemolysis were determined in PBS and 1% Triton X-100, respectively.

[11] = system: S.epidermidis ATCC 12228; assay type: cell-based, Staphylococcus epidermidis; settings: ATCC 12228, 18 h
Experimental: as §1, §2

[12] = system: E. coli, A. baumannii, K. pneumoniae, P. aeruginosa, and S. epidermidis strains; assay type: cell-based; settings: 18 h
Experimental: as §1, §2

Row | Compound | cleaved bond [1] | MIC [3] [µM] | MIC [5] [µM] | MIC [8] [µM] | MIC [9] [µM] | MIC [11] [µM] | other results
1 | Oct-KRLKKIGKVLKWIAKIVGSI-NH2 | Leu21-Lys22, first_seen, within a 30-min incubation; also recorded: Trp23-Ile24, first_seen, within a 30-min incubation; also recorded: Leu14-Lys15, within a 30-min incubation |  |  |  |  |  | 
2 | Pal-KRLKKIGKVLKWIAKIVGSI-NH2 | Leu14-Lys15, after longer incubation times; also recorded: Leu21-Lys22, after longer incubation times; also recorded: Trp23-Ile24, after longer incubation times |  |  |  |  |  | 
3 | Ac-KRLKKIGKVUKWI-NH2 | Leu14-Lys15, within a 30-min incubation; also recorded: Trp23-Ile24, after longer incubation times |  |  |  |  |  | 
4 | Ac-KRLKKIGKVLKWIAKIVGSI-NH2 | Leu21-Lys22, first_seen, within a 30-min incubation; also recorded: Leu14-Lys15, after longer incubation times; also recorded: Trp23-Ile24, after longer incubation times |  |  |  |  |  | 
5 | Ac-KRLKKIGKVLKWIAKIVGSI[Aun]-NH2 (SMILES CC[C@H](C)[C@H](NC(=O)[C@H](CO)NC(=O)CNC(=O)[C@@H](NC(=O)[C@@H](NC(=O)[C@H](CCCCN)NC(=O)[C@H](C)NC(=O)[C@@H](NC(=O)[C@H](Cc1c[nH]c2ccccc12)NC(=O)[C@H](CCCCN)NC(=O)[C@H](CC(C)C)NC(=O)[C@@H](NC(=O)[C@H](CCCCN)NC(=O)CNC(=O)[C@@H](NC(=O)[C@H](CCCCN)NC(=O)[C@H](CCCCN)NC(=O)[C@H](CC(C)C)NC(=O)[C@H](CCCNC(=N)N)NC(=O)[C@H](CCCCN)NC(C)=O)[C@@H](C)CC)C(C)C)[C@@H](C)CC)[C@@H](C)CC)C(C)C)C(=O)NCCCCCCCCCCC(N)=O) | Leu21-Lys22, first_seen, within a 30-min incubation; also recorded: Trp23-Ile24, first_seen, within a 30-min incubation; also recorded: Leu14-Lys15, after longer incubation times |  |  |  |  |  | 
6 | CCCCCCCC(=O)N[C@@H](CCCCN)C(=O)N[C@@H](CCCNC(=N)N)C(=O)N[C@@H](CC(C)C)C(=O)N[C@@H](CCCCN)C(=O)N[C@@H](CCCCN)C(=O)N[C@H](C(=O)NCC(=O)N[C@@H](CCCCN)C(=O)N[C@H](C(=O)N[C@@H](CC(C)C)C(=O)N[C@@H](CCCCN)C(=O)N[C@@H](Cc1c[nH]c2ccccc12)C(=O)N[C@H](C(=O)N[C@@H](C)C(=O)N[C@@H](CCCCN)C(=O)N[C@H](C(=O)N[C@H](C(=O)NCC(=O)N[C@@H](CO)C(=O)N[C@H](C(N)=O)[C@@H](C)CC)C(C)C)[C@@H](C)CC)[C@@H](C)CC)C(C)C)[C@@H](C)CC [c] (Octanoyl-KRLKKIGKVLKWIAKIVGSI-NH2) |  | 32 (≈ 76.9 µg/mL) | 16 (≈ 38.5 µg/mL) | 16 (≈ 38.5 µg/mL) | 8 (≈ 19.2 µg/mL) | 8 (≈ 19.2 µg/mL) | Retention time tR [2]: 22.3 min; Hydrophobicity ΔtR [2]: 9.1; solubility in Müller-Hinton broth [4]: low solubility; HC50 (cytotoxicity on HaCaT cells) [6]: < 32 µM; MIC ([7]; ATCC 25923, 18 h): 16 µM (≈ 38.5 µg/mL); membranolytic (haemolytic) effect on erythrocytes [10]: significant lytic effect
7 | CCCCCCCCCCCC(=O)N[C@@H](CCCCN)C(=O)N[C@@H](CCCNC(=N)N)C(=O)N[C@@H](CC(C)C)C(=O)N[C@@H](CCCCN)C(=O)N[C@@H](CCCCN)C(=O)N[C@H](C(=O)NCC(=O)N[C@@H](CCCCN)C(=O)N[C@H](C(=O)N[C@@H](CC(C)C)C(=O)N[C@@H](CCCCN)C(=O)N[C@@H](Cc1c[nH]c2ccccc12)C(=O)N[C@H](C(=O)N[C@@H](C)C(=O)N[C@@H](CCCCN)C(=O)N[C@H](C(=O)N[C@H](C(=O)NCC(=O)N[C@@H](CO)C(=O)N[C@H](C(N)=O)[C@@H](C)CC)C(C)C)[C@@H](C)CC)[C@@H](C)CC)C(C)C)[C@@H](C)CC [d] (Lauroyl-KRLKKIGKVLKWIAKIVGSI-NH2) |  | >32 | 32 (≈ 78.7 µg/mL) | >32 | 16 (≈ 39.4 µg/mL) | 32 (≈ 78.7 µg/mL) | Retention time tR [2]: 22.8 min; Hydrophobicity ΔtR [2]: 9.6; solubility in Müller-Hinton broth [4]: low solubility; HC50 (cytotoxicity on HaCaT cells) [6]: < 32 µM; MIC ([7]; ATCC 25923, 18 h): 32 µM (≈ 78.7 µg/mL); membranolytic (haemolytic) effect on erythrocytes [10]: significant lytic effect
8 | Ac-KRLKKIGKVLKWI-NH2 | Leu21-Lys22, first_seen, within a 30-min incubation |  |  |  |  |  | 
9 | Ac-KRLKKIGKVLKWIPPIVGSI-NH2 | Leu21-Lys22, first_seen, within a 30-min incubation |  |  |  |  |  | 
10 | Ac-KRLKKIGKVLKWIPPIVGSI-NH2 [a] |  | 4 | 1 | 2 | 1 | 2 | MIC, span over all tested bacterial strains except S. aureus [12]: 1 to 4 µM; Retention time tR [2]: 13.2 min; Hydrophobicity ΔtR [2]: 0; MIC ([7]; S.aureus ATCC 25923, Mueller–Hinton broth, 18 h, 37 °C, 2.5 × 10^5 CFU/mL, visual, mode of three independent tests): 64 µM
11 | Lau-KRLKKIGKVLKWIAKIVGSI-NH2 | Trp23-Ile24, after longer incubation times; also recorded: Leu21-Lys22, first_seen, within a 30-min incubation; also recorded: Leu14-Lys15, after longer incubation times |  |  |  |  |  | 
12 | CC[C@H](C)[C@H](NC(=O)[C@H](CO)NC(=O)CNC(=O)[C@@H](NC(=O)[C@@H](NC(=O)[C@H](CCCCN)NC(=O)[C@H](C)NC(=O)[C@@H](NC(=O)[C@H](Cc1c[nH]c2ccccc12)NC(=O)[C@H](CCCCN)NC(=O)[C@H](CC(C)C)NC(=O)[C@@H](NC(=O)[C@H](CCCCN)NC(=O)CNC(=O)[C@@H](NC(=O)[C@H](CCCCN)NC(=O)[C@H](CCCCN)NC(=O)[C@H](CC(C)C)NC(=O)[C@H](CCCNC(=N)N)NC(=O)[C@H](CCCCN)NC(C)=O)[C@@H](C)CC)C(C)C)[C@@H](C)CC)[C@@H](C)CC)C(C)C)C(=O)NCCCCCCCCCCC(N)=O [f] (Ac-KRLKKIGKVLKWIAKIVGSI[Aun]-NH2) |  | 16 (≈ 40.1 µg/mL) | 16 (≈ 40.1 µg/mL) | 8 (≈ 20 µg/mL) | 4 (≈ 10 µg/mL) | 8 (≈ 20 µg/mL) | HC50 (cytotoxicity on HaCaT cells) [6]: < 32 µM; MIC ([7]; ATCC 25923, 18 h): 8 µM (≈ 20 µg/mL); membranolytic (haemolytic) effect on erythrocytes [10]: significant lytic effect
